{"source": "BindingDB's records for doi:10.1016/j.bmc.2012.02.019", "about": "(Emory University, 2012)", "assay": "Displacement of [3H]-AVP from human V1b receptor after […] by liquid scintillation counting", "note": "pKi: −log10 of the molar value.", "data": [{"molecule": "CS(=O)(=O)N1CCC(Oc2ccc(CC(=O)N3CCC(N4C(=O)CCc5ccccc54)CC3)c(OC/C=C/I)c2)CC1", "values": [{"measurement": "pKi", "result": "< 6.00"}]}]}
